pEC50, pIC50: −log10 of the molar value.
Columns and labels:
[1] = biological target: T1, Angiopoietin-1 receptor (Homo sapiens, UniProt Q02763); assay: Inhibition of TIE2
[2] = biological target: Vascular endothelial growth factor receptor 2 (Homo sapiens, UniProt P35968); assay: Inhibition of VEGFR2
[3] = AUC in rat; format: ADME, organism-based; details: plasma
[4] = biological target: Vascular endothelial growth factor receptor 2 (Mus musculus, UniProt P35918); assay: Inhibition of mouse VEGFR2 autophosphorylation in NIH3T3 cell
[5] = Clearance in rat at 1 mg/kg, iv; format: ADME, organism-based; set-up: dose 1 mg/kg, route intravenous; details: in vivo
[6] = biological target: T1, Angiopoietin-1 receptor; assay: Inhibition of TIE2 at 1000 nM
[7] = biological target: T1, Angiopoietin-1 receptor; assay: Inhibition of TIE2 at 300 nM
[8] = Half life in rat at 1 mg/kg, iv; format: ADME, organism-based; set-up: dose 1 mg/kg, route intravenous; details: in vivo
[9] = AUC (0 to t) in rat at 1 mg/kg, iv; format: ADME, organism-based; set-up: dose 1 mg/kg, route intravenous; details: plasma
[10] = AUC (0 to infinity) in rat at 1 mg/kg, iv; format: ADME, organism-based; set-up: time infinity, dose 1 mg/kg, route intravenous; details: plasma
[11] = Volume of distribution in rat at 1 mg/kg, iv; format: ADME, organism-based; set-up: dose 1 mg/kg, route intravenous; details: in vivo
[12] = Cmax in rat at 5 mg/kg, po; format: ADME, organism-based; set-up: dose 5 mg/kg, route oral; details: in vivo
[13] = Tmax in rat at 5 mg/kg, po; format: ADME, organism-based; set-up: dose 5 mg/kg, route oral; details: in vivo
[14] = AUC (0 to t) in rat at 5 mg/kg, po; format: ADME, organism-based; set-up: dose 5 mg/kg, route oral; details: plasma
[15] = AUC (0 to infinity) in rat at 5 mg/kg, po; format: ADME, organism-based; set-up: time infinity, dose 5 mg/kg, route oral; details: plasma
[16] = Bioavailability in rat at 5 mg/kg, po; format: ADME, organism-based; details: in vivo
[17] = Aqueous solubility at pH 2.0; format: physicochemical; details: aqueous medium
[18] = Aqueous solubility at pH 7.4; format: physicochemical; details: aqueous medium
[19] = system: Aorta; assay: Ex vivo antiangiogenic activity in rat aortic ring explant assessed as inhibition of microvessel growth after 8 days; format: functional, tissue-based; details: 192 h
[20] = system: HUVEC; assay: Inhibition of angiopoietin 1-induced chemotaxis of HUVEC cells; format: functional, cell-based; details: Homo sapiens
[21] = system: Aorta; assay: Toxicity in rat aortic ring; format: tissue-based
[22] = system: HUVEC; assay: Cytotoxicity against human HUVEC cells; format: cell-based

Vascular endothelial growth factor receptor 2 (Mus musculus, UniProt P35918), sequence (P35918 whole entry): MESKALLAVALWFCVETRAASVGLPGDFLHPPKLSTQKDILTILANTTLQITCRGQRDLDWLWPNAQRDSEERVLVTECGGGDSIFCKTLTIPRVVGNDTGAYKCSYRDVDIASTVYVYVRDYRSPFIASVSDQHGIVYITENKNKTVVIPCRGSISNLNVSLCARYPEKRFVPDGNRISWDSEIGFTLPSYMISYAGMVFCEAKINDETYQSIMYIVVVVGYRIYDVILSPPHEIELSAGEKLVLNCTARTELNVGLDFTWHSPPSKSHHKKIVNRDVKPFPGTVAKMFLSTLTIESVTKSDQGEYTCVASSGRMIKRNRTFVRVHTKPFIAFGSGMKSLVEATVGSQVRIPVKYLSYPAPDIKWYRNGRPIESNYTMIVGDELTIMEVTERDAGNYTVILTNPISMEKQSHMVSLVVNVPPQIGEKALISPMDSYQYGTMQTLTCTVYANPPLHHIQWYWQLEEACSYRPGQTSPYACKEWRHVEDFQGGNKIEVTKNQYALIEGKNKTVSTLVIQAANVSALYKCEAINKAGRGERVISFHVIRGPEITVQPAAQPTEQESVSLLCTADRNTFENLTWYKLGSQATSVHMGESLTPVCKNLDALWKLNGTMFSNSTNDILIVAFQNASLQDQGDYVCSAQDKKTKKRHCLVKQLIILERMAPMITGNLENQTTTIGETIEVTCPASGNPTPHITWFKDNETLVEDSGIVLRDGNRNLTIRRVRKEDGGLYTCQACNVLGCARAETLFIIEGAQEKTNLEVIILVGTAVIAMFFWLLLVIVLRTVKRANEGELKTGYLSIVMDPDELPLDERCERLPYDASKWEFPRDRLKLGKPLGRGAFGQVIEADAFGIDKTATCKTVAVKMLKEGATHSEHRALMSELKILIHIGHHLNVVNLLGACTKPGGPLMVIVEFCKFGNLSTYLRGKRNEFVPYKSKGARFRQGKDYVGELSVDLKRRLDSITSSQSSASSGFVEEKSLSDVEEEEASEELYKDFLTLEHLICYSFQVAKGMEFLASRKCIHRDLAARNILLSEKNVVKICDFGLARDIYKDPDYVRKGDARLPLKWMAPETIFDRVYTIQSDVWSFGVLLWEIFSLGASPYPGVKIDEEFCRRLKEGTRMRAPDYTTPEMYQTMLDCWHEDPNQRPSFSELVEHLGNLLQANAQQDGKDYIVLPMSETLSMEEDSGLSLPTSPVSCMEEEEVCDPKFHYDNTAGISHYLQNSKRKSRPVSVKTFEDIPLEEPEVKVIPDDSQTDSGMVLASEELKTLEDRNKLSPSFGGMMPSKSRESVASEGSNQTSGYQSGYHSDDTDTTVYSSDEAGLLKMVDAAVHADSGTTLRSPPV
Vascular endothelial growth factor receptor 2 (Homo sapiens, UniProt P35968), sequence (P35968 whole entry): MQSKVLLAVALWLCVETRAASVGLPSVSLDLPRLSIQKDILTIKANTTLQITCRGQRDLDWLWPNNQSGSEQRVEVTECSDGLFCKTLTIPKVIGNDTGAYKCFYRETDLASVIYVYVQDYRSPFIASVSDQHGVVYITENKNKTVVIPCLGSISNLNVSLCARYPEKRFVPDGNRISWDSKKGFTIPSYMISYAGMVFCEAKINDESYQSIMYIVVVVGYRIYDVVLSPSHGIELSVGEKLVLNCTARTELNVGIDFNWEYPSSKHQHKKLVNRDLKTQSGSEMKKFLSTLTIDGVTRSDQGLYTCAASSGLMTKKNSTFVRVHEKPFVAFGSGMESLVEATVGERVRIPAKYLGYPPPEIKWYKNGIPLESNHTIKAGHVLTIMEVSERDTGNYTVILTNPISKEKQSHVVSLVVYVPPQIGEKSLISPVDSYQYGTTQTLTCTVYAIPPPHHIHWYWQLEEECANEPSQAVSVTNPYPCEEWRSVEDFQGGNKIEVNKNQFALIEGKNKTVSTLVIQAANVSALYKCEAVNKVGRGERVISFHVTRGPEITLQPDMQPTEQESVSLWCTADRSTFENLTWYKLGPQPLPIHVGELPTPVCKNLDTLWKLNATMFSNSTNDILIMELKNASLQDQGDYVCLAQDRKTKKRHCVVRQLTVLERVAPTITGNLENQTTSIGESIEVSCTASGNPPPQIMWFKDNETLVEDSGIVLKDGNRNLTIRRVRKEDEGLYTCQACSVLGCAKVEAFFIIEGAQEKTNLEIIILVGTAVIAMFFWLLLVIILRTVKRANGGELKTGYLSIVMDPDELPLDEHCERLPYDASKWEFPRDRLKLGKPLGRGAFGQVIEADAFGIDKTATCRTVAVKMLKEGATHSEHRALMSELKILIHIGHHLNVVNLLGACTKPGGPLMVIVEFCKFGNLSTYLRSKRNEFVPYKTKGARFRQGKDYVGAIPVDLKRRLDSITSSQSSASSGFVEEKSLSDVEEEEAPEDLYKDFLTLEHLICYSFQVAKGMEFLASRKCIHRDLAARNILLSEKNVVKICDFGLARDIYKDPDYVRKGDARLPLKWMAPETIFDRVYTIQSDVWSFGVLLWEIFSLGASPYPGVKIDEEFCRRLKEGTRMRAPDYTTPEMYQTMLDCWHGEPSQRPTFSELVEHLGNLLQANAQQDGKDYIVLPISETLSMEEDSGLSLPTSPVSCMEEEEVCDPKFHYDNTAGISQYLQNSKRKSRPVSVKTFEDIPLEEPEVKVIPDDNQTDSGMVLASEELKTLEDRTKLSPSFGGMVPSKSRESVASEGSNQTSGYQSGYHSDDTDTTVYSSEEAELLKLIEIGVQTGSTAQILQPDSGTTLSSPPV
T1 sequence (Q02763 whole entry): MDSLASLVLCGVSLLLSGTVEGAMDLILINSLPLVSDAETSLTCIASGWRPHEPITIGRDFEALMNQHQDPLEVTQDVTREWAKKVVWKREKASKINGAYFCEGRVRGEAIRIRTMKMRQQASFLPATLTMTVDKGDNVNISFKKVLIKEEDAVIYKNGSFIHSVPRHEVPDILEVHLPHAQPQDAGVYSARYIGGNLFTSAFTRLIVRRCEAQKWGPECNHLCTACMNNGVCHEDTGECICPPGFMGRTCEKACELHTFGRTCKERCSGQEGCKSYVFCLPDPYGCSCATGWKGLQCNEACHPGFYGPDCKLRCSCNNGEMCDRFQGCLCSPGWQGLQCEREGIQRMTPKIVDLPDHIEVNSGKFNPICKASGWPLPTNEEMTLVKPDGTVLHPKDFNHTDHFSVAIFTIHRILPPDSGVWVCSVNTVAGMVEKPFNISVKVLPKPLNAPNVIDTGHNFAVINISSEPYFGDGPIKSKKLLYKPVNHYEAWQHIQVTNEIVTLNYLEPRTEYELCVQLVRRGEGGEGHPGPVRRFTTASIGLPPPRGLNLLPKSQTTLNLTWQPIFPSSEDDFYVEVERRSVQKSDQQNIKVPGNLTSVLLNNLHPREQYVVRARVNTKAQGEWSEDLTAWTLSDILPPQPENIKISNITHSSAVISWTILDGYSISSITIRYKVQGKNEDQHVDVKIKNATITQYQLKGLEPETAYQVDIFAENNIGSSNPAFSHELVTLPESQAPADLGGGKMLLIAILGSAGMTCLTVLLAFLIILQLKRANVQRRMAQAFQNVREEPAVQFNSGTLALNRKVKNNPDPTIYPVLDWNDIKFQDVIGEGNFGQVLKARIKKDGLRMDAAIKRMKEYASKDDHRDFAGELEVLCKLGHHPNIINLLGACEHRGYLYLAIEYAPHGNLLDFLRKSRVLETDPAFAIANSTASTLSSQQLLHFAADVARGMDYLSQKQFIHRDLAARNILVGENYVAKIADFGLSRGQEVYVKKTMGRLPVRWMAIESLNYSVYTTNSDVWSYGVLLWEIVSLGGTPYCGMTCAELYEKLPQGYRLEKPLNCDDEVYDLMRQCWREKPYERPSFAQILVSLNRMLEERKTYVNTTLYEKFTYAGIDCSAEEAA

Row | pIC50 [1] | pIC50 [2] | SMILES | also measured
1 | 6.14 | 7.12 | CC(=O)c1ccc2c(c1)c1c3c(c4c(c1n2C(C)C)CCc1nn(C)cc1-4)C(=O)NC3 | –
2 | 7.82 | 7.60 | CC(C)Cn1c2ccc(C(=O)c3sccc3Br)cc2c2c3c(c4c(c21)CCc1nn(C)cc1-4)C(=O)NC3 | AUC [3]: 123 ng·h/mL; pIC50 [4]: > 8.00; clearance [5]: 138 mL/min/kg
3 | 7.37 | 9.00 | CCn1c2ccc(C(=O)c3cccs3)cc2c2c3c(c4c(c21)CCc1nn(C)cc1-4)C(=O)NC3 | –
4 | 8.30 | 8.00 | Cc1ccsc1C(=O)c1ccc2c(c1)c1c3c(c4c(c1n2CC(C)C)CCc1nn(C)cc1-4)C(=O)NC3 | AUC [3]: 261 ng·h/mL; pIC50 [4]: > 8.00; clearance [5]: 72 mL/min/kg
5 | 6.00 | 7.89 | CCn1c2ccc(C(C)=O)cc2c2c3c(c4c(c21)CCc1nn(C)cc1-4)C(=O)NC3 | inhibition [6]: 50%
6 | 6.87 | 8.70 | Cn1cc2c(n1)CCc1c-2c2c(c3c1[nH]c1ccc(C(=O)c4cccs4)cc13)CNC2=O | –
7 | 6.57 | 8.52 | CCCn1c2ccc(C(C)=O)cc2c2c3c(c4c(c21)CCc1nn(C)cc1-4)C(=O)NC3 | –
8 | 7.08 | 7.68 | CC(=O)c1ccc2c(c1)c1c3c(c4c(c1n2CC(C)C)CCc1nn(C)cc1-4)C(=O)NC3 | –
9 | 6.87 | 7.80 | CCCn1c2ccccc2c2c3c(c4c(c21)CCc1nn(C)cc1-4)C(=O)NC3 | –
10 | 6.43 | 7.77 | CC(C)Cn1c2ccccc2c2c3c(c4c(c21)CCc1nn(C)cc1-4)C(=O)NC3 | –
11 | 7.62 | 7.82 | CC(C)n1c2ccc(C(=O)c3cccs3)cc2c2c3c(c4c(c21)CCc1nn(C)cc1-4)C(=O)NC3 | –
12 | 5.87 | 7.80 | Cn1cc2c(n1)CCc1c-2c2c(c3c1[nH]c1ccccc13)CNC2=O | –
13 | 5.87 | 7.80 | CC(C)OCc1ccc2c(c1)c1c3c(c4c(c1n2CCCOC(=O)CN(C)C)Cc1ccccc1-4)C(=O)NC3 [CEP-7055] | –
14 | 7.20 | 7.89 | CC(C)Cn1c2ccc(C(=O)c3ccsc3)cc2c2c3c(c4c(c21)CCc1nn(C)cc1-4)C(=O)NC3 | –
15 | 7.89 | 8.15 | CC(C)Cn1c2ccc(C(=O)c3sccc3Cl)cc2c2c3c(c4c(c21)CCc1nn(C)cc1-4)C(=O)NC3 | pIC50 [4]: 8.00; half-life [8]: 1.35 h; AUC(0-t) [9]: 1440 ng·h/mL; AUC(0-inf) [10]: 1490 ng·h/mL; Vd [11]: 1.4 L/kg; clearance [5]: 12 mL/min/kg; Cmax [12]: 842 ng/mL; Tmax [13]: 3.33 h; AUC(0-t) [14]: 3330 ng·h/mL; AUC(0-inf) [15]: 5140 ng·h/mL; bioavailability [16]: 69%; solubility [17]: < 1 µg/mL; solubility [18]: < 1 µg/mL; pEC50 [19]: 7.70; Activity [20]: Dose-dependent effect; Activity [21]: Non-toxic; Activity [22]: Non-toxic
16 | 7.37 | 7.96 | Cc1csc(C(=O)c2ccc3c(c2)c2c4c(c5c(c2n3CC(C)C)CCc2nn(C)cc2-5)C(=O)NC4)c1 | pIC50 [4]: < 7.30
17 | 7.14 | 8.40 | CC(C)Cn1c2ccc(C(=O)c3ccco3)cc2c2c3c(c4c(c21)CCc1nn(C)cc1-4)C(=O)NC3 | –
18 | 7.59 | 8.30 | CCCn1c2ccc(C(=O)c3cccs3)cc2c2c3c(c4c(c21)CCc1nn(C)cc1-4)C(=O)NC3 | –
19 | < 6.00 | 7.46 | CC(=O)c1ccc2[nH]c3c4c(c5c(c3c2c1)CNC5=O)-c1cn(C)nc1CC4 | inhibition [6]: 28%
20 | 7.24 | 8.10 | CC(C)Cn1c2ccc(C(=O)c3ccoc3)cc2c2c3c(c4c(c21)CCc1nn(C)cc1-4)C(=O)NC3 | –
21 | < 5.00 | 8.00 | CC(=O)c1ccc2c(c1)c1c3c(c4c(c1n2C)CCc1nn(C)cc1-4)C(=O)NC3 | –
22 | 5.96 | 7.82 | CCn1c2ccccc2c2c3c(c4c(c21)CCc1nn(C)cc1-4)C(=O)NC3 | –
23 | 7.70 | 8.22 | CC(C)Cn1c2ccc(C(=O)c3cccs3)cc2c2c3c(c4c(c21)CCc1nn(C)cc1-4)C(=O)NC3 | pIC50 [4]: 8.00; half-life [8]: 2.32 h; AUC(0-t) [9]: 5680 ng·h/mL; AUC(0-inf) [10]: 6650 ng·h/mL; Vd [11]: 0.52 L/kg; clearance [5]: 2.36 mL/min/kg; Cmax [12]: 638 ng/mL; Tmax [13]: 4 h; AUC(0-t) [14]: 2820 ng·h/mL; AUC(0-inf) [15]: 4130 ng·h/mL; bioavailability [16]: 12%; solubility [17]: < 1 µg/mL; solubility [18]: < 1 µg/mL; pEC50 [19]: 7.70; Activity [20]: Dose-dependent effect; Activity [21]: Non-toxic; Activity [22]: Non-toxic

Row | SMILES | pIC50 [1] | pIC50 [2] | also measured
24 | CCCCn1c2ccc(C(C)=O)cc2c2c3c(c4c(c21)CCc1nn(C)cc1-4)C(=O)NC3 | 6.52 | 7.59 | inhibition [7]: 50%
